From US7579462B2, “Process for preparing 17-allyl amino geldanamycin (17-aag) and other ansamycins” (Conforma Therapeutics Corporation, priority 2001, dated 2009)

Assay: Relative solubility of 17-AAG polymorphs in solvents and oils
Format: physicochemical
Settings: lower melting point form (about 147-153° C.) compared with higher melting point form (about 200-212° C.) of 17-AAG; at room temperature
Source text: Indeed, one aspect of the invention is the ability to form and exploit different polymorphic structures. […] The water may be premixed with the ethanol or later added to the ethanol solution already containing 17-AAG dissolved therein. […] Depending on the end-goal, one may readily convert one form to another simply by dissolving and crystallizing in the appropriate solvent.

## C=CCNC1=C2C[C@@H](C)C[C@H](OC)[C@H](O)[C@@H](C)/C=C(\C)[C@H](OC(N)=O)[C@@H](OC)/C=C\C=C(/C)C(=O)NC(=CC1=O)C2=O [17-AAG, 17-allylamino-geldanamycin]
  solubility in a variety of solvents and oils: more readily soluble
